In paper PMC7531004, “Discovery of gramicidin A analogues with altered activities by multidimensional screening of a one-bead-one-compound library” (Nature Communications, 2020):
Where a SMILES comes first, the peptide text is derived from it. [ ]: non-standard residue; d: D form. The star is where a group is joined. NHCH2CH2OH = OCCN*; For = O=C*

How the values were obtained:
[1] = H+/Na+ transport assay of bead-derived peptides (one-point); format: biochemical; design: key: relative activity; mean of two control wells = 1.00; conditions: bead-derived peptide solution, EYPC/EYPG LUVs;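 note: relative to parent gramicidin A activity set to 1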
Summary of the method: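 H+/Na+ transport is monitored through pyranine fluorescence in freshly extruded LUVs after a 30-min room-temperature vortex with each library peptide at a single concentration. Signals are normalized to detergent (Triton X-100) and untreated controls.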

[2] = cell viability/%
Summary of the method: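 P388 cells at 1 × 10^4 cells/mL (final) were exposed to library peptides (stocks diluted 250-fold in RPMI1640/10% FBS) for 92 h at 37 °C, 5% CO2. Viable cells were counted by WST-1/1-methoxy PMS (4 h), absorbance 415 nm, and expressed as cell viability (%).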

[3] = system: Streptococcus pyogenes SSI-9; experiment: Antibacterial activity assay of bead-derived peptides (three concentrations); format: cell-based; design: key: +++: inhibition by the 640-fold diluted peptide solution; ++: inhibition by the 160-fold diluted solution; +: inhibition by the 40-fold diluted solution; -: no inhibition; conditions: S. pyogenes, bead-derived peptide solution, three concentrations
Summary of the method: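 Library peptide stock applied undiluted, 4-fold and 16-fold diluted in DMSO to S. pyogenes SSI-9 (2 × 10^5 CFU) in cation-adjusted Mueller Hinton broth with 5% laked horse blood. After 18 h at 37 °C, growth judged by visible cell precipitation.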

CNC(=O)C[C@@H](NC(=O)[C@@H](NC(=O)[C@H](NC(=O)[C@H](C)NC(=O)[C@H](NC(=O)[C@H](C)NC(=O)CNC(=O)[C@@H](NC=O)C(C)C)C(C)C)C(C)C)C(C)C)C(=O)N[C@@H](Cc1c[nH]c2ccccc12)C(=O)N[C@@H](C(=O)N[C@@H](Cc1c[nH]c2ccccc12)C(=O)N[C@H](CC(C)C)C(=O)N[C@@H](Cc1c[nH]c2ccccc12)C(=O)N[C@H](CC(C)C)C(=O)N[C@@H](Cc1c[nH]c2ccccc12)C(=O)NCCO)C(C)C [compound 903] (For-VGA[dV]A[dV]V[dD](NHMe)W[dV]W[dL]W[dL]W-NHCH2CH2OH)
H+/Na+ transport activity normalized against the value of 1 (1.00) [1]: 1.15 | viability [2]: 89.7% | antibacterial activity [3]: -

CC(C)C[C@@H](NC(=O)[C@H](C)NC(=O)CNC(=O)[C@@H](NC=O)C(C)C)C(=O)N[C@@H](C)C(=O)N[C@H](CC(C)C)C(=O)N[C@H](C(=O)N[C@@H](C(=O)N[C@@H](Cc1c[nH]c2ccccc12)C(=O)N[C@@H](C(=O)N[C@@H](Cc1c[nH]c2ccccc12)C(=O)N[C@@H](C(=O)N[C@@H](Cc1c[nH]c2ccccc12)C(=O)N[C@H](CC(C)C)C(=O)N[C@@H](Cc1c[nH]c2ccccc12)C(=O)NCCO)C(C)C)C(C)C)C(C)C)C(C)C [compound 905] (For-VGA[dL]A[dL]V[dV]W[dV]W[dV]W[dL]W-NHCH2CH2OH)
H+/Na+ transport activity normalized against the value of 1 (1.00) [1]: 1.19 | viability [2]: 90.6% | antibacterial activity [3]: +

CC(C)C[C@@H](NC(=O)[C@H](Cc1c[nH]c2ccccc12)NC(=O)[C@@H](CC(C)C)NC(=O)[C@H](Cc1c[nH]c2ccccc12)NC(=O)[C@H](NC(=O)[C@H](Cc1c[nH]c2ccccc12)NC(=O)[C@H](NC(=O)[C@@H](NC(=O)[C@H](NC(=O)[C@H](C)NC(=O)[C@H](NC(=O)[C@H](C)NC(=O)CNC(=O)[C@@H](NC=O)C(C)C)C(C)C)C(C)C)C(C)C)C(C)C)C(C)C)C(=O)N[C@@H](Cc1c[nH]c2ccccc12)C(=O)NCCO [compound 1119] (For-VGA[dV]A[dV]V[dV]W[dV]W[dL]W[dL]W-NHCH2CH2OH)
H+/Na+ transport activity normalized against the value of 1 (1.00) [1]: 1.10 | viability [2]: 100% | antibacterial activity [3]: -

CNC(=O)C[C@@H](NC(=O)[C@H](Cc1c[nH]c2ccccc12)NC(=O)[C@@H](CC(C)C)NC(=O)[C@@H](NC(=O)[C@@H](CC(C)C)NC(=O)[C@H](C)NC(=O)[C@H](NC(=O)[C@H](C)NC(=O)CNC(=O)[C@@H](NC=O)C(C)C)C(C)C)C(C)C)C(=O)N[C@@H](Cc1c[nH]c2ccccc12)C(=O)N[C@@H](C(=O)N[C@@H](Cc1c[nH]c2ccccc12)C(=O)N[C@@H](C(=O)N[C@@H](Cc1c[nH]c2ccccc12)C(=O)NCCO)C(C)C)C(C)C [compound 1152] (For-VGA[dV]A[dL]V[dL]W[dD](NHMe)W[dV]W[dV]W-NHCH2CH2OH)
H+/Na+ transport activity normalized against the value of 1 (1.00) [1]: 1.05 | viability [2]: 100% | antibacterial activity [3]: -

CC(C)C[C@@H](NC(=O)[C@@H](NC(=O)[C@H](NC(=O)[C@H](C)NC(=O)[C@H](NC(=O)[C@H](C)NC(=O)CNC(=O)[C@@H](NC=O)C(C)C)[C@H](C)O)C(C)C)C(C)C)C(=O)N[C@@H](Cc1c[nH]c2ccccc12)C(=O)N[C@@H](C(=O)N[C@@H](Cc1c[nH]c2ccccc12)C(=O)N[C@@H](C(=O)N[C@@H](Cc1c[nH]c2ccccc12)C(=O)N[C@@H](C(=O)N[C@@H](Cc1c[nH]c2ccccc12)C(=O)NCCO)C(C)C)C(C)C)[C@H](C)O [compound 1156] (For-VGA[dT]A[dV]V[dL]W[dT]W[dV]W[dV]W-NHCH2CH2OH)
H+/Na+ transport activity normalized against the value of 1 (1.00) [1]: 1.03 | viability [2]: 85.9% | antibacterial activity [3]: -
